Patent publication US20250034170A1, “SMALL MOLECULE MODULATORS OF GLUCOCEREBROSIDASE ACTIVITY AND USES THEREOF” (Vanqua Bio, Inc., priority 2021, published 2025)

target: T1, GCase (Homo sapiens, UniProt P04062); assay: activation of GCase in a live cell PFB assay in HELA cells; format: cell-based; conditions: EC50 given as range classes
T1 construct: endogenous in cells; host or cells: HeLa cells
T1 sequence (P04062 40-536): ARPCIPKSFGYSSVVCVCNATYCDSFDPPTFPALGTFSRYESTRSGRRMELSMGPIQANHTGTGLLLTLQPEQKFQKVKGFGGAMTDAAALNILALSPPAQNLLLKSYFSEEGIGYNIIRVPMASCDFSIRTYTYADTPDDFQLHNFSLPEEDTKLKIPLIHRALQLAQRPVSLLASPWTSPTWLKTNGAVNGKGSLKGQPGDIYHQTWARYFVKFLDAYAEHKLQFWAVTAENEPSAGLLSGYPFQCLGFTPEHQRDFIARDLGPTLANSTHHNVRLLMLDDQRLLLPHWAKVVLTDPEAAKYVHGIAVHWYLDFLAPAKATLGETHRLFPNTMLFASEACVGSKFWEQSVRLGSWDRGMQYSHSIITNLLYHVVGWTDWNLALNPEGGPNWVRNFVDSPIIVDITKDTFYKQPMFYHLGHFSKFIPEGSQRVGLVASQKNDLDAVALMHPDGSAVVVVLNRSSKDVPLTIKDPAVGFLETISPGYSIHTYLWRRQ
Protocol: Exemplary compounds were evaluated for activation of GCase in a live cell PFB assay in HELA cells (essentially as described in Ysselstein et al., “LRRK2 kinase activity regulates lysosomal glucocerebrosidase in neurons derived from Parkinson's disease patients” Nature Communications (2019) 10:5570). […] EC50 ranges: A: <10 μM; B: >10-50 μM; C: >50-100 μM; D: >100 μM.

Question: For `COc1ccccc1C(=O)N1CC2(CCN(c3cnc4cnn(CC(F)F)c4n3)C2)C1` [Cmpd 391], which EC50 is on record?
Answer: < 10 µM

Question: `O=C(c1ccccc1C(F)(F)F)N1CC2(CCN(c3cnc4cnn(CC(F)F)c4n3)C2)C1` [Cmpd 392] was tested. Which EC50 did it give?
Answer: < 10 µM

Question: For `O=S(=O)(c1ccccc1Cl)N1CC2(CCN(c3cnc4cnn(CC(F)F)c4n3)C2)C1` [Cmpd 393], which EC50 is on record?
Answer: 10 to 50 µM

Question: `Cc1ccccc1S(=O)(=O)N1CC2(CCN(c3cnc4cnn(CC(F)F)c4n3)C2)C1` [Cmpd 394] was tested. Which EC50 did it give?
Answer: 10 to 50 µM

Question: With `O=S(=O)(c1ccccc1F)N1CC2(CCN(c3cnc4cnn(CC(F)F)c4n3)C2)C1` [Cmpd 395] as the compound, how does the EC50 read?
Answer: < 10 µM

Question: How did the EC50 turn out when `O=S(=O)(c1ccccc1C(F)(F)F)N1CC2(CCN(c3cnc4cnn(CC(F)F)c4n3)C2)C1` [Cmpd 396] was run?
Answer: 10 to 50 µM

Question: `O=C1CC2(CCN(c3cnc4cnn(CC(F)F)c4n3)CC2)CN1Cc1ccc(F)cn1` [Cmpd 397] was tested. Which EC50 did it give?
Answer: 10 to 50 µM

Question: Which EC50 does the source give for `Cc1cc(CN2CC3(CCN(c4cnc5cnn(CC(F)F)c5n4)CC3)CC2=O)no1` [Cmpd 398] here?
Answer: 10 to 50 µM

Question: `Cc1csc(CN2CC3(CCN(c4cnc5cnn(CC(F)F)c5n4)CC3)CC2=O)n1` [Cmpd 399] was tested. Which EC50 did it give?
Answer: 10 to 50 µM

Question: For `O=C1CC2(CCN(c3cnc4cnn(CC(F)F)c4n3)CC2)CN1Cc1ccc(Cl)cn1` [Cmpd 400], which EC50 is on record?
Answer: 10 to 50 µM

Question: With `FC(F)Cn1ncc2ncc(N3CCC4(CN(c5cncc(Cl)c5)C4)C3)nc21` [Cmpd 401] as the compound, how does the EC50 read?
Answer: 10 to 50 µM

Question: `Cc1nc(N2CC3(CCN(c4cnc5cnn(CC(F)F)c5n4)C3)C2)ncc1Cl` [Cmpd 402] was tested. Which EC50 did it give?
Answer: > 100 µM

Question: `FC(F)Cn1ncc2ncc(N3CCC4(CN(c5ccc(Cl)cn5)C4)C3)nc21` [Cmpd 403] was tested. Which EC50 did it give?
Answer: 10 to 50 µM

Question: Which EC50 does the source give for `Cc1cc(N2CC3(CCN(c4cnc5cnn(CC(F)F)c5n4)C3)C2)nc(C(F)(F)F)n1` [Cmpd 404] here?
Answer: < 10 µM

Question: With `FC(F)Cn1ncc2ncc(N3CCC4(CN(c5cccc(OC(F)(F)F)n5)C4)C3)nc21` [Cmpd 405] as the compound, how does the EC50 read?
Answer: 10 to 50 µM

Question: `FC(F)Cn1ncc2ncc(N3CCC4(CN(c5cccc(OC(F)F)n5)C4)C3)nc21` [Cmpd 406] was tested. Which EC50 did it give?
Answer: 10 to 50 µM

Question: How did the EC50 turn out when `Fc1cc(Cl)cnc1N1CC2(CCN(c3cnc4cnn(CC(F)F)c4n3)C2)C1` [Cmpd 407] was run?
Answer: 10 to 50 µM

Question: `Cc1cc(Cl)cnc1N1CC2(CCN(c3cnc4cnn(CC(F)F)c4n3)C2)C1` [Cmpd 408] was tested. Which EC50 did it give?
Answer: 10 to 50 µM

Question: Which EC50 does the source give for `FC(F)Cn1ncc2ncc(N3CCC4(CN(c5cccc(OCC(F)(F)F)n5)C4)C3)nc21` [Cmpd 409] here?
Answer: 10 to 50 µM

Question: With `COc1ncc(N2CC3(CCN(c4cnc5cnn(CC(F)F)c5n4)C3)C2)cn1` [Cmpd 410] as the compound, how does the EC50 read?
Answer: 50 to 100 µM

Question: `FC(F)Cn1ncc2ncc(N3CCC4(CN(c5ccnc(OC(F)(F)F)c5)C4)C3)nc21` [Cmpd 411] was tested. Which EC50 did it give?
Answer: 10 to 50 µM

Question: How did the EC50 turn out when `FC(F)Cn1ncc2ncc(N3CCC4(CN(c5ccnc(OCC(F)(F)F)c5)C4)C3)nc21` [Cmpd 412] was run?
Answer: 10 to 50 µM

Question: Which EC50 does the source give for `O=S(=O)(c1cncc(C(F)(F)F)c1)N1CC2(CCN(c3cnc4cnn(CC(F)F)c4n3)C2)C1` [Cmpd 413] here?
Answer: < 10 µM

Question: How did the EC50 turn out when `O=S(=O)(c1ccc(C(F)(F)F)nc1)N1CC2(CCN(c3cnc4cnn(CC(F)F)c4n3)C2)C1` [Cmpd 414] was run?
Answer: 10 to 50 µM

Question: Which EC50 does the source give for `O=S(=O)(CCC(F)(F)F)N1CC2(CCN(c3cnc4cnn(CC(F)F)c4n3)C2)C1` [Cmpd 415] here?
Answer: 10 to 50 µM

Question: For `Cc1ccc(S(=O)(=O)N2CC3(CCN(c4cnc5cnn(CC(F)F)c5n4)C3)C2)cn1` [Cmpd 416], which EC50 is on record?
Answer: 10 to 50 µM

Question: With `Cc1cccc(S(=O)(=O)N2CC3(CCN(c4cnc5cnn(CC(F)F)c5n4)C3)C2)c1` [Cmpd 417] as the compound, how does the EC50 read?
Answer: < 10 µM

Question: With `O=S(=O)(c1cccc(Cl)c1)N1CC2(CCN(c3cnc4cnn(CC(F)F)c4n3)C2)C1` [Cmpd 418] as the compound, how does the EC50 read?
Answer: < 10 µM

Question: How did the EC50 turn out when `Cc1ccc(C(=O)N2CC3(CCN(c4cnc5cnn(CC(F)F)c5n4)C3)C2)cc1` [Cmpd 419] was run?
Answer: 10 to 50 µM

Question: Which EC50 does the source give for `O=C(c1cc(Cl)cc(Cl)n1)N1CC2(CCN(c3cnc4cnn(CC(F)F)c4n3)C2)C1` [Cmpd 420] here?
Answer: 10 to 50 µM

Question: Which EC50 does the source give for `O=C1CC2(CCN(c3cnc4cnn(CC(F)F)c4n3)CC2)CN1Cc1ccc(Cl)cc1F` [Cmpd 421] here?
Answer: < 10 µM

Question: With `Cc1nc(N2CC3(CCN(c4cnc5cnn(CC(F)F)c5n4)C3)C2)cc(C(F)(F)F)n1` [Cmpd 422] as the compound, how does the EC50 read?
Answer: < 10 µM

Question: How did the EC50 turn out when `Cc1ncc(CN2CC3(CCN(c4cnc5cnn(CC(F)F)c5n4)CC3)CC2=O)s1` [Cmpd 423] was run?
Answer: 10 to 50 µM
